Read-outs that look alike come from different tables or passages of the source.

Data set [1] is described as follows: solubility of the crystalline powder. The data set is classed as physicochemical.
Data set [2] is described as follows: rate of dissolution of the active substance (rotary basket). The data set is classed as physicochemical. The settings on record: water for injections 1000 ml, 37±1° C, 50 rpm, 0.25 g, 0 to 45 min. The protocol:
The rate of dissolution of the active substance is determined in a "rotary basket" type DT-D6 apparatus (Erweka Co, BRD) at a mixing rate of 50 rpm. The dissolving medium is water for injections in a volume of 1000 ml at a temperature of 37±1° C. The content of the active substance in the solution is determined spectrophotometrically in a spectrophotometr No. 75 (Perkin-Elmer Co) at a wave length of 259 nm. For comparison, the known crystalline form of the said compound is used under identical conditions. The parameter for comparison is the constant of dissolution rate based on the mean results of the compound transition into solution from the amount thereof used (0.25 g) in the time of 0 to 45 min. The water for injections is used as a control.

A short description of another data set: subacute toxicity. The data set is classed as in vivo, random-bred white mice, rats, and chinchilla rabbits. As to conditions: subacute routes of inoculation. The protocol: (§1) Trials of the toxicity of the claimed crystalline modification of the said compound were carried out comparing it with the known crystalline form of the said compound.
(§2) Investigations of the general toxic effect of the claimed crystalline modification of 2,4-dioxo-6-methyl-1,2,3,4-tetrahydropyrimidine and the known crystalline form of the said compound were carried out in 3 […] species (random-bred white mice, rats, and chinchilla rabbits).

Data set [3] deals with allergenic and immunotoxic properties. Briefly: studies of the allergenic and immunotoxic properties.
A further data set deals with wounds. The experiment in a line: preliminary experiments on the wound-healing effect. Type of data set: in vivo.
In another data set the test system is linear wounds. The experiment in a line: wound-healing activity, model of linear wounds in rats (scar strength). Type of data set: in vivo, random-bred white male rats. As to conditions: for Strength of the scar: wounds pricked once daily for 3 days; for Strength of the scar / Increase of the scar strength as compared with control: claimed 0.25% solution, known 1% solution in 0.9% aqueous NaCl. The protocol: (§3) The tests were carried out in 2 groups of 41 random-bred white male rats weighing 200±10 g. The experimental model in the 1st group were linear wounds of 50 mm long inflicted on the backs of the rats. Depending on the crystalline form of the tested compound used the rats were divided into 3 series. The first series was control--the wounds were pricked once daily with 0.9% aqueous solution of sodium chloride (0.5 ml) for 3 days. In the 2nd series the wounds were pricked by the same method with 1% solution of the known crystalline form of the said compound in 0.9% aqueous solution of sodium chloride. In the 3rd series the wounds were pricked by the same method with 0.25% solution of the claimed compound in 0.9% aqueous solution of sodium chloride.
(§4) The results of trials of the wound-healing activity of the claimed and the known crystalline forms of the said compound were statistically treated with the confidence limit of 95%.

A further data set deals with plane multilayer wounds. Briefly: wound-healing activity, plane multilayer wounds in rats. Type of data set: in vivo, random-bred white male rats. As to conditions: for Rate of healing at 7 days / Rate of healing at 10 days / Rate of healing at 15 days / Mean time of falling off of crusts / Mean time of healing / Speeding up of healing: claimed 0.25% solution, known 1% solution in 0.9% aqueous NaCl. The protocol: as §3
Plane multilayer wounds of 400 mm^2 in area inflicted on the backs of rats were an experimental model in the 2nd group of experiments. The animals were also divided into 3 series. Here, the pricking of the wound was done by the same schedule as in the 1st group. The parameters of the wound process in the time course at 7, 10 and 15 days after wound inflicting were assessed by the methods of tensiometry, planimetry and clinical observations. The time of falling off of crusts and complete healing of the wounds was determined. The rate of the wound area decrease (V) in the course of healing was calculated by the formula [formula] wherein So is the initial wound area, mm^2,
St the wound area on the day of measurement t, mm^2.
as §4

The next data set is described as follows: acute toxicity. The data set is classed as in vivo, random-bred white mice, rats, and chinchilla rabbits. The protocol:
as §1, §2

A further data set concerns eyes. Briefly: safety of long-term subconjunctival inoculations (2-month toxicological experiment). The data set is classed as in vivo, white rats and chinchilla rabbits. The protocol: The study on the safety of long-term subconjunctival inoculations of the claimed modification in comparison with the known form of the said compound was carried out in a 2-month-long toxicological experiment in 148 mature male and female white rats and 49 male and female chinchilla rabbits.
Male rats and rabbits were given subconjunctivally I drop each of 2%, 25% and 50% suspension of the claimed modification of the said compound into each eye once daily. The results obtained were compared with those in a group of male rats and rabbits given one drop of 2% suspension of the known form of the said compound into the eye. Besides, a 2% suspension of the claimed modification of the said compound was given to a group of female rats and rabbits which were compared with the control group. In a separate series of experiments in the same animals (rats, rabbits) carried out by the same schedule of a chronic experiment, the effect of the claimed pharmaceutical in the form of an eye ointment containing as the active substance the claimed modification of the said compound was determined. The results of this study confirm the data obtained in the studies of the effect of the claimed compound. Comparisons with the pharmaceutical containing the known form of the said compound gave analogous results.

For data set [4] the following is noted: prior-art description, cited from earlier work.

Take `Cc1cc(O)nc(O)n1` [claimed modification, 2,4-dioxo-6-methyl-1,2,3,4-tetrahydropyrimidine]: the solubility in chloroform entry in data set [1] (chloroform) is “practically insoluble”. Further, in data set [1] (ethyl alcohol), the “solubility in ethyl alcohol” value is reported as “poorly soluble”. Moreover, the “solubility in ethyl ether” value in data set [1] (ethyl ether) is “practically insoluble”. Moreover, in data set [1] (water), the solubility in water entry was “poorly soluble”. Moreover, in [2], the “constant of the dissolution rate K” value is 0.025 min⁻¹. For the same compound, the cumulative effect result in “subacute toxicity” is “weak”. Further, in data set [3], the “formation of the tumor necrosis factor” value is listed as “not to be conducive to the formation of the tumor necrosis factor”, the “functional activity of the B-cell immunity” value is “no effect on the functional activity of the B-cell immunity”, the “functional activity of the Te-cell immunity” value is given as “not to inhibit the functional activity of the Te-cell immunity” and the specific leukocyte lysis result is recorded as “no specific leukocyte lysis”. Further, the “specific reaction of leukocyte agglomeration” value in data set [3] was “no specific reaction of leukocyte agglomeration”. The “allergenic and immunotoxic properties” value in data set [3] (overall) was “no allergenic and immunotoxic properties”. Besides, the “concentration of solution at which significant (comparable) wound-healing effect was manifested” value in the data set with wounds worked out at 0.25 % by weight. Also, in the data set on linear wounds (7 days), the “increase of rupture strength of linear wounds as compared with the control” value is 90.4% and the “Strength of the scar” value is 57.3 ± 9.0 g/mm^2. In the data set on linear wounds (7 days, 0.25% vs 1% solution), the “increase of rupture strength of linear wounds as compared with the known form of the compound” value is reported as 43%. The “Increase of the scar strength as compared with control” value with linear wounds came out at 90.4. In addition, in the data set on plane multilayer wounds, the “shortening of time of complete healing of plane wounds as compared with the control” value is given as 26.2%, the “Rate of healing at 7 days” value is given as 61.6 ± 6.3%, the “Rate of healing at 10 days” value stood at 89.0 ± 4.9% and the “Rate of healing at 15 days” value is listed as 95.4 ± 3.8%. For the same compound, in the data set with plane multilayer wounds, the “Mean time of falling off of crusts” value was 8.6 ± 0.7 days, the “Mean time of healing” value amounted to 17.7 ± 1.6 days and the “Speeding up of healing” value amounted to 26.2%. The “shortening of time of complete healing of plane wounds as compared with the known form of the compound” value with plane multilayer wounds (0.25% vs 1% solution) was determined as 12%. The “class of toxicity (acute toxicity)” value in “acute toxicity” was “Vth class of toxicity (practically non-toxic compounds)”. For the same compound, the “class of toxicity (acute toxicity, intraperitoneal route)” value in “acute toxicity” (intraperitoneal) is on record as “VI class of relatively harmless compounds”. In the data set “acute toxicity” (subconjunctival route), the mean lethal dose result is “could not be established”. The “microscopic changes in the eye” value in the data set on eyes (large doses) was “lymphoid infiltrates were formed in the ciliary body, iris, and sometimes in the initial parts of the optic nerve, but these changes were reversible”. Besides, in the data set on eyes (long-term administration), the “macroscopic local inflammatory reactions of the eyes” value is reported as “no macroscopic local inflammatory reactions of the eyes”.
Regarding `Cc1cc(O)nc(O)n1` [known form, 2,4-dioxo-6-methyl-1,2,3,4-tetrahydropyrimidine], in [2], the “constant of the dissolution rate K” value was 0.18 min⁻¹. For the same compound, the “concentration of solution at which significant (comparable) wound-healing effect was manifested” value with wounds is 1 % by weight. Further, the “Strength of the scar” value with linear wounds (7 days) turned out to be 40.1 ± 5.0 g/mm^2. The “Increase of the scar strength as compared with control” value in the data set on linear wounds was found to be 33.2. Also, in the data set on plane multilayer wounds, the “Rate of healing at 7 days” value was 57.5 ± 8.3%, the “Rate of healing at 10 days” value came out at 80.2 ± 2.0%, the “Rate of healing at 15 days” value is listed as 90.2 ± 2.8% and the “Mean time of falling off of crusts” value was 9.6 ± 0.5 days. Further, in the data set on plane multilayer wounds, the “Mean time of healing” value is given as 18.4 ± 1.6 days and the “Speeding up of healing” value stood at 23.3%. Also, in “acute toxicity”, the “class of toxicity (acute toxicity)” value is recorded as “slightly higher toxicity, although they belong to the same group”. In addition, the solubility in chloroform result in [4] (chloroform) is given as “insoluble”. In addition, in data set [4] (ether), the solubility in ether entry is “insoluble”. For the same compound, the “solubility in ethyl alcohol” value in data set [4] (ethyl alcohol) is “poorly soluble”. The solubility in water result in data set [4] (water) is reported as “poorly soluble”.

(Values after patent publication US5543147A, “Crystalline modification of 2,4-dioxo-6-methyl-1,2,3,4-tetrahydropyrimidine, a method for the preparation thereof and a medicinal preparation based on it” (Leonidov; Nikolai B., priority 1994, dated 1996).)
